The test system of this experiment is mold. Description: TAPPI T-487 test on surface-treated paper. It is filed as cell-based. Set-up: key to TAPPI T-487 rating Week 1 / TAPPI T-487 rating Week 2 / TAPPI T-487 rating Week 3: 100% mold coverage; 1: 90% mold coverage; 2: 80% mold coverage; 3: 70% mold coverage; 4: 60% mold coverage; 50% mold coverage; 6: 40% mold coverage; 7: 30% mold coverage; 8: 20% mold coverage; 9: 10% mold coverage; 10: no mold growth. Particulars: surface treatment; for TAPPI T-487 rating Week 1 / TAPPI T-487 rating Week 2 / TAPPI T-487 rating Week 3: average of three sheets. Here is the method:
The papers of this example were prepared via surface treatment. The values in Table 3 below represent the average concentration of active biocide in the paper and the average […]-487 test rating based on three paper sheets.

As for `CCCCNC(=O)OCC#CI` [IPBC, 3-iodo-2-propynyl-butylcarbamate], where the note is “70 ppm in paper”, the “TAPPI T-487 rating Week 1” value is recorded as 0, the “TAPPI T-487 rating Week 2” value amounted to 0 and the “TAPPI T-487 rating Week 3” value is reported as 0. Further, where the note is “688 ppm in paper”, the “TAPPI T-487 rating Week 1” value is reported as 0, the “TAPPI T-487 rating Week 2” value is 0 and the “TAPPI T-487 rating Week 3” value was 0. Where the note is “6768 ppm in paper”, the “TAPPI T-487 rating Week 1” value was found to be 0, the “TAPPI T-487 rating Week 2” value amounted to 0 and the “TAPPI T-487 rating Week 3” value worked out at 0. The “effectiveness at controlling mold growth versus comparators” value (based on Table 3) was “more effective at controlling mold growth at lower dosages than DIMTS, ZPT, and TBZ”.
`c1ccc2[nH]c(-c3cscn3)nc2c1` [TBZ, Thiabendazole]: for the setting “31 ppm in paper”, the “TAPPI T-487 rating Week 1” value was 4 (100% mold coverage), the “TAPPI T-487 rating Week 2” value is given as 4 (100% mold coverage) and the “TAPPI T-487 rating Week 3” value is given as 4 (100% mold coverage). For the setting “229 ppm in paper”, the “TAPPI T-487 rating Week 1” value was 2 (50% mold coverage), the “TAPPI T-487 rating Week 2” value is given as 4 (100% mold coverage) and the “TAPPI T-487 rating Week 3” value is 4 (100% mold coverage). Further, for the setting “4107 ppm in paper”, the “TAPPI T-487 rating Week 1” value is given as 0, the “TAPPI T-487 rating Week 2” value is given as 0 and the “TAPPI T-487 rating Week 3” value turned out to be 0.
As to zinc pyrithione [ZPT], the “TAPPI T-487 rating Week 1” value reads like this: (60 ppm in paper) 4 (100% mold coverage); (486 ppm in paper) 1 (25% mold coverage); (5408 ppm in paper) 0. Further, the “TAPPI T-487 rating Week 2” value by setting is: (60 ppm in paper) 4 (100% mold coverage); (486 ppm in paper) 4 (100% mold coverage); (5408 ppm in paper) 0. Further, the “TAPPI T-487 rating Week 3” value was 4 (100% mold coverage) (60 ppm in paper), 4 (100% mold coverage) (486 ppm in paper) and 0 (5408 ppm in paper).

The values above are taken from patent publication US8362051B2, “Mold-resistant wallboard” (Rohm and Haas Company, priority 2007, dated 2013).
